Values of other authors, collected in US20230404078A1, “HERBICIDAL COMBINATIONS” (priority 2020, published 2023).

What was measured:
[1] = tested on: broadleaf weeds; conditions: Clethodim itself
[2] = tested on: wheat; conditions: in vivo

## CCSC(C)CC1CC(=O)C(/C(CC)=N/OC/C=C/Cl)=C(O)C1 (stereo not drawn) [Clethodim, 2-[1-[[[(2£)-3-chloro-2-propen-l-yl]oxy]imino]propyl]-5-[2-(ethylthio)propyl]-3-hydroxy-2-cyclohexen-1-one]
[1]
  efficacy against broadleaf weeds: no efficacy

## COc1cc(OC)n2nc(NS(=O)(=O)c3c(C(F)(F)F)ccnc3OC)nc2n1 [Pyroxsulam]
[2]
  injury in the wheat crop: greater than 10%
  visual injury in wheat: up to 10%
